Values quoted from earlier work as cited in patent publication US20250025455A1, “CONTROLLED-RELEASE NICOTINE CHEWING GUM” (Altria Client Services LLC, priority 2023, published 2025).

Conditions: free base (non-protonated) nicotine

CN1CCCC1c1cccnc1 (stereo not shown) [Free-base nicotine, 3-(1-methyl-2-pyrrolidinyl) pyridine]
pKa value: about 8
